Measurements: patent publication US8058395B2, “Chimeric protein comprising a green fluorescent ptotein fused to a transcription factor” (The United States of America as represented by the …, priority 1995, dated 2011)

Assays:
Format in all cases: cell-based
GFP-GR [1] = target: T1, GFP-GR (Rattus norvegicus, UniProt P06536, C656G/D98G); test: Cytoplasm-to-nuclear translocation of GFP-GR in living transfected murine adenocarcinoma cells (video/confocal microscopy)
T1 construct: expressed in transfected cells; host or cells: 1471.1 cells (murine C127 adenocarcinoma derivative); 3134 cells (C127 derivative) for gene targeting

GFP-GR [2] = target: T1, GFP-GR; test: Intranuclear accumulation pattern (foci) of GFP-GR, confocal microscopy and 3D reconstruction; settings: ligand-treated cells
GFP-GR [3] = target: T1, GFP-GR; test: Activation of endogenous multi-copy MMTV LTR-CAT reporter in 1471.1 cells expressing GFP-GR (ligand specificity); settings: 4 hrs, dex 1 nM and 10 nM, RU486 10 nM

C[C@@H]1C[C@H]2[C@@H]3CCC4=CC(=O)C=C[C@]4(C)[C@@]3(F)[C@@H](O)C[C@]2(C)[C@@]1(O)C(=O)CO [dexamethasone]
fluorescing cells in which translocation of GFP-GR occurs (GFP-GR [1]): 100%

C[C@]12CC[C@@H]3c4ccc(O)cc4CC[C@H]3[C@@H]1CC[C@@H]2O [17-β-estradiol]
extent of GFP-GR cytoplasm-to-nuclear translocation (GFP-GR [1]; 10 nM ligand, 30 min at 37° C.): did not cause intranuclear GFP-GR accumulation
intranuclear focal accumulation pattern of GFP-GR (GFP-GR [2]): not observed
activation of MMTV LTR-CAT reporter (GFP-GR [3]): fails to activate
